In data set [1] the test system is mouse collagen-induced arthritis (CIA). Kind of data set: Mouse collagen-induced arthritis (CIA) model. In kind it is in vivo, DBA/J1 mice. Conditions: dosing from day 18. The protocol: Male DBA/J1 mice (7-9 weeks old from Jackson Labs, Bar Harbor, Me., USA) were used. The CIA study using mice of same age, strain and source was performed at Boulder BioPATH Inc as described below. Male DBA/J1 mice were shaved at the base of the tail and injected with 0.1 ml emulsion consisting of a 1 to 1 (1 mg/l mg) mixture of type II chicken collagen with Mycobacterium butyricum (Difco) as an adjuvant. Three weeks later, the mice were boosted with another 0.1 ml injection of emulsion at the base of the tail to induce disease. Dosing started at day 18 while the last boost to induce the disease was at day 21. The mice were scored in a blinded manner twice weekly for 3 weeks for signs of arthritis in each paw according to the following scale: clinical signs were evaluated using the following scale: 0=normal; 1=one joint affected or mild diffuse erythema and swelling; 2=two joints affected or mild diffuse erythema and swelling; 3=three joints affected or mild diffuse erythema and swelling; 4=four joint affected or marked diffuse erythema and swelling; and 5=severe erythema and severe swelling. Upon study completion (day 28), mice were killed with CO2.

In data set [2] the test system is rat adjuvant induced arthritis (AIA), established disease. Conditions: male rats, 2.5 mg/kg IP every other day from day 16 to day 40, left and right paw; listed as TC 5, 2.5 mg/kg.
The test system of data set [3] is rat adjuvant induced arthritis (AIA). Kind of data set: Prophylactic model of rat adjuvant induced arthritis (AIA). Conditions: for joint damage (radiographs; CT scan at 2.5 mg/kg): 2.5 mg/kg/day and 500 μg/kg/day IP; for paw inflammation (paw volume), dose effect: 2.5 mg/kg/day and 500 μg/kg/day IP from day 10, left and right paw; for joint histology (H&E staining): limb at study end.

For data set [4] the test system is unchanged. The conditions noted are these: in vivo, ip, 5 mg/kg/day.
Setting [5] is: male rats, 500 μg/kg/day IP from day 10.
[6] abbreviates: male rats, 10 mg/kg/day IP from day 10 for 14 days, left and right paw, 10 mg/kg/day.
The mark [7] stands for this setting: male rats, 10 mg/kg/day IP, 10 mg/kg/day.
Where [8] appears, read: male rats, 10 mg/kg/day IP, limbs at study end, 10 mg/kg/day.
Setting [9] is: male rats, 5 mg/kg/day IP from day 10 for 14 days, right paw, 5 mg/kg/day.

“Also recorded” adds a separate entry of the source.

Take `c1ccc(-c2ccc(C(c3ccccc3)n3ccnc3)cc2)cc1` (stereo not drawn) [TC5, 1-[phenyl(4-phenylphenyl)methyl]-1H-imidazole]: the “clinical scoring of the paws (clinical signs of arthritis)” value in data set [1] (male mice, 2.5 and 0.25 mg/kg IP) is reported as “significant prevention of arthritis with inhibition comparable to ENBREL”; in data set [1] (male mice, 2.5 and 0.25 mg/kg IP, listed as TC 5) it was “inhibited clinical signs of the disease comparable to ENBREL treated groups”; in data set [1] (male mice, 2.5 and 0.25 mg/kg IP, listed as bifonazole) it was “can reduce paw inflammation”. The “paw inflammation (paw volume)” value in data set [2] is on record as “halted the progression of the disease”; in data set [3] (setting [5]) it was “maximum inhibition observed at the 500 μg/kg/day”; in data set [3] (male rats, 500 μg/kg/day IP from day 10, listed as TC 5), “also reduced paw inflammation”; in data set [3] (male rats, 2.5 mg/kg/day IP from day 10), “demonstrated maximal effect similar to ENBREL”; in data set [3] (setting [6]) it was “reduced paw inflammation to control levels similar to those observed for ENBREL”; in data set [3] (male rats, 10 mg/kg/day IP from day 10 for 14 days, left and right paw, listed as bifonazole, 10 mg/kg/day) it was “can reduce paw inflammation”. The “paw inflammation (paw volume)” value in data set [3] (male rats, 5, 2.5 and 0.5 mg/kg/day oral gavage from day 10) was “not as effective as the IP dosing”; in data set [3] (male rats, 5, 2.5 and 0.5 mg/kg/day oral gavage from day 10, listed as TC 5) it was “dose dependent with the highest dose demonstrated maximal effect”. The “joint damage (radiographs; CT scan at 2.5 mg/kg)” value in data set [3] (male rats) is listed as “effective is preserving the joint damage at both concentrations; also recorded: able to prevent significant joint damage compared to the disease control in a dose dependent manner”. The “paw inflammation (paw volume), dose effect” value in data set [3] (male rats) was “can prevent development and progression of rat adjuvant induced arthritis dose dependently”. For the same compound, the “joint histology (H&E staining)” value in data set [3] (setting [7]) is “minimal inflammation, reduced bone proliferation, preservation of the cartilage, and preservation of the synovial membrane; also recorded: significant preservation of the synovium membrane (white space), significant preservation of the cartilage (space between the 2 blue lines), and minor bone proliferation”. In addition, the “joint damage (radiographs, CT scans)” value in data set [3] (setting [8]) was “prevents joint damage similar to those from ENBREL treated group; also recorded: able to prevent significant joint damage compared to the disease control; also recorded: significant reduction in bone damage in treated animals compared to diseased animals”; in data set [3] (male rats, 10 mg/kg/day IP, limbs at study end, listed as bifonazole, 10 mg/kg/day) it was “can reduce paw inflammation (FIGS. 1-2) and ankle damage”. Further, the “joint damage (radiographs; CT scan of 500 μg/Kg oral group)” value in data set [3] (male rats, 5, 2.5 and 0.5 mg/kg/day oral gavage) is given as “effective in preserving the joint damage at all three concentrations tested; also recorded: significant reduction in bone damage in treated animals compared to diseased animals”.
Regarding `COc1ccc(C(Cl)=C(c2ccc(OC)cc2)c2ccc(OC)cc2)cc1` [TC10, 1,1′,1″-(2-chloroethene-1,1,2-triyl)tris(4-methoxybenzene)], the “clinical scoring of the paws (clinical signs of arthritis)” value in data set [1] (male mice, 25, 2.5 and 0.25 mg/kg IP) is “All three doses inhibited clinical signs of the disease; also recorded: significant prevention of arthritis with inhibition greater than ENBREL at all tested doses”; in data set [1] (male mice, 25, 2.5 and 0.25 mg/kg IP, listed as chlorotrianisene) it was “can reduce paw inflammation”. Moreover, the weight loss entry in data set [4] was “near negligible”. For the same compound, the “joint damage (radiographs)” value in data set [3] (female rats, 2.5 and 0.5 mg/kg/day IP) was “effective in preserving the joint damage at both concentrations tested; also recorded: able to prevent significant joint damage compared to the disease control”; in data set [3] (female rats, oral, 5 mg/kg/day) it was “effective in female rates in preserving joint damage”. The “paw inflammation (paw volume)” value in data set [3] (female rats, 2.5 and 0.5 mg/kg/day IP from day 10 for 12 days, listed as TC 10) is recorded as “inhibited at both doses”; in data set [3] (female rats, 5 and 2.5 mg/kg/day oral), “prevented paw inflammation; also recorded: significant reduction in paw inflammation”; in data set [3] (setting [5]), “also reduced paw inflammation; also recorded: comparable results to ENBREL”; in data set [3] (male rats, 2.5 mg/kg/day IP from day 10, 2.5 mg/kg/day), “maximal effect better than ENBREL with nearly complete inhibition of paw inflammation; also recorded: near complete prevention of arthritis bringing paw inflammation near the non-disease control; also recorded: maximum inhibition observed at 2.5 mg/kg/day dose bringing inflammation down to the non-disease control level”; in data set [3] (setting [9]), “reduced paw inflammation to control levels similar to those observed for ENBREL”; in data set [3] (male rats, 5 mg/kg/day IP from day 10 for 14 days, right paw, listed as NM2026, 5 mg/kg/day), “able to inhibit paw inflammation similar to the effects of ENBREL”. Moreover, the “paw inflammation (paw volume)” value in data set [3] (male rats, 5 mg/kg/day oral gavage from day 10, 5 mg/kg/day) was “can prevent development and progression of rat adjuvant induced arthritis; also recorded: not as effective as the IP dosing”; in data set [3] (male rats, 5 mg/kg/day oral gavage from day 10, listed as TC 10, 5 mg/kg/day), “inhibited paw inflammation to ENBREL controls”; in data set [3] (setting [6]) it was “can prevent development and progression of rat adjuvant induced arthritis comparable to the effects of ENBREL; also recorded: able to inhibit paw inflammation similar to the effects of ENBREL”; in data set [3] (male rats, 10 mg/kg/day IP from day 10 for 14 days, left and right paw, listed as TC 10, 10 mg/kg/day), “reduced paw inflammation to control levels similar to those observed for ENBREL”. In data set [3] (male rats), the “joint damage (radiographs; CT scan at 2.5 mg/kg)” value is “effective is preserving the joint damage at both concentrations; also recorded: shows preservation of the joint damage; also recorded: able to prevent significant joint damage at both doses 2.5 mg and 0.5 mg compared to the disease control in a dose dependent manner; also recorded: Joint damage was almost completely prevented with no joint damage”. Moreover, the “paw inflammation (paw volume), dose effect” value in data set [3] (male rats) is “can prevent development and progression of rat adjuvant induced arthritis dose dependently with maximum effect observed at 2.5 dose”. Moreover, the “joint damage (radiographs, CT scans)” value was “effectively preserves the joint damage; also recorded: able to prevent significant joint damage compared to the disease control at 5 mg/kg dose tested; also recorded: near complete prevention of joint destruction at 5 mg/kg/day compared to the diseased control” in data set [3] (male rats, 5 mg/kg/day oral gavage, 5 mg/kg/day) and “prevents joint damage similar to those from ENBREL treated group; also recorded: able to prevent significant joint damage compared to the disease control; also recorded: significant reduction in bone damage in treated animals compared to diseased animals” in data set [3] (setting [8]). For the same compound, the “joint histology (H&E staining)” value in data set [3] (setting [7]) is “minimal inflammation, reduced bone proliferation, preservation of the cartilage, and preservation of the synovial membrane; also recorded: significant preservation of the synovium membrane (white space), significant preservation of the cartilage (space between the 2 blue lines), and minor bone proliferation”.
For the compound `CC/C(=C(\c1ccccc1)c1ccc(OCCN(C)C)cc1)c1ccccc1` [Tamoxifen, (Z)-2-[4-(1,2-diphenylbut-1-enyl)phenoxy]-N,N-dimethyl-ethanamine], the “paw inflammation (paw volume)” value is recorded as “reduced paw inflammation to control levels similar to those observed for ENBREL” in data set [3] (setting [9]) and “can reduce paw inflammation” in data set [3] (male rats, 5 mg/kg/day IP from day 10 for 14 days, right paw, listed as tamoxifen, 5 mg/kg/day).

The values are drawn from patent US9040507B2, “Method for treating inflammatory conditions” (Novelmed Therapeutics, Inc., priority 2008, dated 2015).
